Experimental data: ChEMBL document CHEMBL4308841, “Synthesis, in vitro antiproliferative activity, and kinase inhibitory effects of pyrazole-containing diarylureas and diarylamides” (Eur J Med Chem, 2018)

What was measured:
A498 = assay: Growth inhibition of human A498 cells incubated for 48 hrs by sulforhodamine B assay; type: functional, cell-based; conditions: A498, 48 h
SNB-75 = assay: Growth inhibition of human SNB75 cells assessed as cell growth at 0.1 uM incubated for 48 hrs by sulforhodamine B assay relative to control; type: functional; conditions: SNB-75, 48 h, read-out: Activity
SN12C = assay: Growth inhibition of human SN12C cells assessed as cell growth at 0.1 uM incubated for 48 hrs by sulforhodamine B assay relative to control; type: functional; conditions: read-out: Activity
IGROV-1 = assay: Growth inhibition of human IGROV1 cells incubated for 48 hrs by sulforhodamine B assay; type: functional, cell-based; conditions: IGROV-1, 48 h
ACHN = assay: Growth inhibition of human ACHN cells assessed as cell growth at 0.01 uM incubated for 48 hrs by sulforhodamine B assay relative to control; type: functional; conditions: read-out: Activity
BT-549 = assay: Growth inhibition of human BT549 cells assessed as cell growth at 0.1 uM incubated for 48 hrs by sulforhodamine B assay relative to control; type: functional; conditions: BT-549, 48 h, read-out: Activity
PC-3 = assay: Growth inhibition of human PC3 cells assessed as cell growth at 100 uM incubated for 48 hrs by sulforhodamine B assay relative to control; type: functional; conditions: PC-3, 48 h, read-out: Activity
OVCAR-8 = assay: Growth inhibition of human OVCAR8 cells assessed as cell growth at 100 uM incubated for 48 hrs by sulforhodamine B assay relative to control; type: functional; conditions: OVCAR-8, 48 h, read-out: Activity
MOLT-4 = assay: Growth inhibition of human MOLT4 cells assessed as cell growth at 0.01 uM incubated for 48 hrs by sulforhodamine B assay relative to control; type: functional; conditions: MOLT-4, 48 h, read-out: Activity
HCT-15 = assay: Growth inhibition of human HCT15 cells assessed as cell growth at 100 uM incubated for 48 hrs by sulforhodamine B assay relative to control; type: functional; conditions: HCT-15, 48 h, read-out: Activity
SNB-19 = assay: Growth inhibition of human SNB19 cells assessed as cell growth at 0.1 uM incubated for 48 hrs by sulforhodamine B assay relative to control; type: functional; conditions: SNB-19, 48 h, read-out: Activity
SK-MEL-2 [1] = assay: Growth inhibition of human SK-MEL-2 cells assessed as cell growth at 0.1 uM incubated for 48 hrs by sulforhodamine B assay relative to control; type: functional; conditions: SK-MEL-2, 48 h, read-out: Activity
NCI/ADR-RES = assay: Growth inhibition of human NCI/ADR-RES cells incubated for 48 hrs by sulforhodamine B assay; type: functional, cell-based
DU-145 = assay: Growth inhibition of human DU145 cells incubated for 48 hrs by sulforhodamine B assay; type: functional, cell-based; conditions: DU-145, 48 h
RPMI-8226 = assay: Growth inhibition of human RPMI8226 cells assessed as cell growth at 100 uM incubated for 48 hrs by sulforhodamine B assay relative to control; type: functional; conditions: RPMI-8226, 48 h, read-out: Activity
SK-MEL-28 = assay: Growth inhibition of human SK-MEL-28 cells assessed as cell growth at 1 uM incubated for 48 hrs by sulforhodamine B assay relative to control; type: functional; conditions: SK-MEL-28, 48 h, read-out: Activity
KM12 = assay: Growth inhibition of human KM12 cells assessed as cell growth at 1 uM incubated for 48 hrs by sulforhodamine B assay relative to control; type: functional; conditions: KM12, 48 h, read-out: Activity
SK-OV-3 = assay: Growth inhibition of human SKOV3 cells assessed as cell growth at 0.1 uM incubated for 48 hrs by sulforhodamine B assay relative to control; type: functional; conditions: SK-OV-3, 48 h, read-out: Activity
OVCAR-3 = assay: Growth inhibition of human OVCAR3 cells assessed as cell growth at 100 uM incubated for 48 hrs by sulforhodamine B assay relative to control; type: functional; conditions: OVCAR-3, 48 h, read-out: Activity
UACC-257 = assay: Growth inhibition of human UACC257 cells assessed as cell growth at 100 uM incubated for 48 hrs by sulforhodamine B assay relative to control; type: functional; conditions: UACC-257, 48 h, read-out: Activity
HOP-62 [2] = assay: Growth inhibition of human HOP62 cells assessed as cell growth at 100 uM incubated for 48 hrs by sulforhodamine B assay relative to control; type: functional; conditions: HOP-62, 48 h, read-out: Activity
HOP-62 [3] = assay: Growth inhibition of human HOP62 cells assessed as cell growth at 0.01 uM incubated for 48 hrs by sulforhodamine B assay relative to control; type: functional; conditions: HOP-62, 48 h, read-out: Activity
UACC-62 = assay: Growth inhibition of human UACC62 cells assessed as cell growth at 1 uM incubated for 48 hrs by sulforhodamine B assay relative to control; type: functional; conditions: UACC-62, 48 h, read-out: Activity
NCI-H226 = assay: Growth inhibition of human NCI-H226 cells assessed as cell growth at 100 uM incubated for 48 hrs by sulforhodamine B assay relative to control; type: functional; conditions: NCI-H226, 48 h, read-out: Activity
K562 = assay: Growth inhibition of human K562 cells assessed as cell growth at 1 uM incubated for 48 hrs by sulforhodamine B assay relative to control; type: functional; conditions: K562, 48 h, read-out: Activity
HCT-116 = assay: Growth inhibition of human HCT116 cells assessed as cell growth at 0.01 uM incubated for 48 hrs by sulforhodamine B assay relative to control; type: functional; conditions: HCT-116, 48 h, read-out: Activity
SK-MEL-2 [4] = assay: Growth inhibition of human SK-MEL-2 cells assessed as cell growth at 100 uM incubated for 48 hrs by sulforhodamine B assay relative to control; type: functional; conditions: SK-MEL-2, 48 h, read-out: Activity
TK-10 = assay: Growth inhibition of human TK10 cells assessed as cell growth at 10 uM incubated for 48 hrs by sulforhodamine B assay relative to control; type: functional; conditions: TK-10, 48 h, read-out: Activity
HL-60(TB) = assay: Growth inhibition of human HL-60(TB) cells assessed as cell growth at 0.1 uM incubated for 48 hrs by sulforhodamine B assay relative to control; type: functional; conditions: HL-60, 48 h, read-out: Activity
LOX IMVI = assay: Growth inhibition of human LOXIMVI cells incubated for 48 hrs by sulforhodamine B assay; type: functional
[5] = read-out: LC50 (the source's name)
[6] = read-out: pLC50 (the source's name) (converted)

Compound: COc1cc(Cl)cc(-c2nn(-c3cccc(NC(=O)Nc4cc(C(F)(F)F)cc(C(F)(F)F)c4)c3)cc2-c2ccncc2)c1
- IC50 (A498): 0.39 µM
- GI50 (A498; read-out: GI50): 0.35 µM
- CC50 (A498; [5]): 0.0334 µM
- TGI (A498; read-out: TGI): 3.59 µM
- GI50 (A498; read-out: pGI50 (converted)): 0.389 µM
- CC50 (A498; [6]): 33.1 µM
- TGI (A498; read-out: pTGI (converted)): 3.63 µM
- growth at 0.1 µM (SNB-75): 74%
- growth at 0.1 µM (SN12C): 97%
- IC50 (IGROV-1): 0.57 µM
- GI50 (IGROV-1; read-out: GI50): 0.572 µM
- CC50 (IGROV-1; [5]): > 100 µM
- TGI (IGROV-1; read-out: TGI): 12.6 µM
- GI50 (IGROV-1; read-out: pGI50 (converted)): 0.575 µM
- CC50 (IGROV-1; [6]): > 100 µM
- TGI (IGROV-1; read-out: pTGI (converted)): 12.6 µM
- growth at 0.01 µM (ACHN): 103%
- growth at 0.1 µM (BT-549): 89%
- growth at 100 µM (PC-3): -44%
- growth at 100 µM (OVCAR-8): -62%
- growth at 0.01 µM (MOLT-4): 94%
- growth at 100 µM (HCT-15): -83%
- growth at 0.1 µM (SNB-19): 87%
- growth at 0.1 µM (SK-MEL-2 [1]): 95%
- IC50 (NCI/ADR-RES): 0.82 µM
- GI50 (NCI/ADR-RES; read-out: GI50): 0.815 µM
- CC50 (NCI/ADR-RES; [5]): > 100 µM
- TGI (NCI/ADR-RES; read-out: TGI): 9.98 µM
- GI50 (NCI/ADR-RES; read-out: pGI50 (converted)): 0.813 µM
- CC50 (NCI/ADR-RES; [6]): > 100 µM
- TGI (NCI/ADR-RES; read-out: pTGI (converted)): 10 µM
- IC50 (DU-145): 0.47 µM
- GI50 (DU-145; read-out: GI50): 0.459 µM
- TGI (DU-145; read-out: TGI): 10.6 µM
- GI50 (DU-145; read-out: pGI50 (converted)): 0.468 µM
- CC50 (DU-145; [6]): 38.9 µM
- TGI (DU-145; read-out: pTGI (converted)): 10.7 µM
- growth at 100 µM (RPMI-8226): -8%
- growth at 1 µM (SK-MEL-28): 46%
- growth at 1 µM (KM12): 31%
- growth at 0.1 µM (SK-OV-3): 105%
- growth at 100 µM (OVCAR-3): -81%
- growth at 100 µM (UACC-257): -88%
- growth at 100 µM (HOP-62 [2]): -60%
- growth at 0.01 µM (HOP-62 [3]): 93%
- growth at 1 µM (UACC-62): 18%
- growth at 100 µM (NCI-H226): -47%
- growth at 1 µM (K562): 18%
- growth at 0.01 µM (HCT-116): 102%
- growth at 100 µM (SK-MEL-2 [4]): -83%
- growth at 10 µM (TK-10): 30.3%
- growth at 0.1 µM (HL-60(TB)): 88%

Compound: O=C(Nc1cccc(-n2cc(-c3ccncc3)c(-c3cc(O)cc(Cl)c3)n2)c1)c1cc(C(F)(F)F)cc(C(F)(F)F)c1
- GI50 (A498; read-out: GI50): 4.75 µM
- CC50 (A498; [5]): > 100 µM
- TGI (A498; read-out: TGI): 90.8 µM
- GI50 (A498; read-out: pGI50 (converted)): 4.79 µM
- CC50 (A498; [6]): > 100 µM
- TGI (A498; read-out: pTGI (converted)): 91.2 µM
- growth at 0.1 µM (SNB-75): 87%
- growth at 0.1 µM (SN12C): 98%
- GI50 (IGROV-1; read-out: GI50): 7.96 µM
- CC50 (IGROV-1; [5]): > 100 µM
- TGI (IGROV-1; read-out: TGI): > 100 µM
- GI50 (IGROV-1; read-out: pGI50 (converted)): 7.94 µM
- CC50 (IGROV-1; [6]): > 100 µM
- TGI (IGROV-1; read-out: pTGI (converted)): > 100 µM
- growth at 0.01 µM (ACHN): 105%
- growth at 0.1 µM (BT-549): 103%
- growth at 100 µM (PC-3): -8%
- GI50 (LOX IMVI; read-out: GI50): 3.29 µM
- CC50 (LOX IMVI; [5]): > 100 µM
- TGI (LOX IMVI; read-out: TGI): 13.7 µM
- GI50 (LOX IMVI; read-out: pGI50 (converted)): 3.31 µM
- CC50 (LOX IMVI; [6]): > 100 µM
- TGI (LOX IMVI; read-out: pTGI (converted)): 13.8 µM
- growth at 0.01 µM (MOLT-4): 99%
- growth at 100 µM (HCT-15): -47%
- growth at 0.1 µM (SNB-19): 97%
- growth at 0.1 µM (SK-MEL-2 [1]): 93%
- GI50 (NCI/ADR-RES; read-out: GI50): 4.58 µM
- CC50 (NCI/ADR-RES; [5]): > 100 µM
- TGI (NCI/ADR-RES; read-out: TGI): > 100 µM
- GI50 (NCI/ADR-RES; read-out: pGI50 (converted)): 4.57 µM
- CC50 (NCI/ADR-RES; [6]): > 100 µM
- TGI (NCI/ADR-RES; read-out: pTGI (converted)): > 100 µM
- GI50 (DU-145; read-out: GI50): 5.1 µM
- CC50 (DU-145; [5]): > 100 µM
- TGI (DU-145; read-out: TGI): > 100 µM
- GI50 (DU-145; read-out: pGI50 (converted)): 5.25 µM
- CC50 (DU-145; [6]): > 100 µM
- TGI (DU-145; read-out: pTGI (converted)): > 100 µM
- growth at 100 µM (RPMI-8226): -4%
- growth at 1 µM (SK-MEL-28): 55%
- growth at 1 µM (KM12): 79%
- growth at 0.1 µM (SK-OV-3): 98%
- growth at 100 µM (OVCAR-3): -10%
- growth at 100 µM (UACC-257): -10%
- growth at 100 µM (HOP-62 [2]): 14%
- growth at 0.01 µM (HOP-62 [3]): 103%
- growth at 1 µM (UACC-62): 92%
- growth at 100 µM (NCI-H226): 19%
- growth at 1 µM (K562): 85%
- growth at 0.01 µM (HCT-116): 102%
- growth at 100 µM (SK-MEL-2 [4]): -43%
- growth at 10 µM (TK-10): 73%
